Measurements as given in patent publication US20180264134A1, “A COMPOSITION OF GOLD NANOPARTICLES HAVING ANTIMICROBIAL PEPTIDES BOUND ON THEIR SURFACE FOR USE THE TREATMENT OF WOUND HEALING OR IN THE TREATMENT OF ISCHEMIC OR VASCULAR DISEASES OR IN THE TREATMENT OF SKIN DISORDERS” (priority 2015, published 2018).

System: chorioallantoic membrane (CAM)
Assay: Chorioallantoic membrane (CAM) assay
Type: in vivo
Conditions: CAM vs vehicle
Experimental: In an embodiment, the evaluation of the pro-angiogenic properties of LL37-Au NPs. […] The formation of new blood vessels is a prerequisite of tissue repair and wound healing. Therefore, it was evaluated the inductive properties of LL37 and LL37-Au NPs on human umbilical vein endothelial cells (HUVECs) to secrete vascular endothelial growth factor (VEGF165) (FIG. 14b). […] Next, the assessment of the pro-angiogenic activity of LL37 and LL37-Au NPs in a chorioallantoic membrane (CAM) assay was made.

With CC[C@H](C)[C@H](NC(=O)[C@H](CCCCN)NC(=O)[C@H](CCC(=O)O)NC(=O)[C@H](CCCCN)NC(=O)[C@H](CO)NC(=O)[C@H](CCCCN)NC(=O)[C@H](CCCNC(=N)N)NC(=O)[C@H](Cc1ccccc1)NC(=O)[C@H](Cc1ccccc1)NC(=O)[C@H](CC(=O)O)NC(=O)CNC(=O)[C@H](CC(C)C)NC(=O)[C@@H](N)CC(C)C)C(=O)NCC(=O)N[C@@H](CCCCN)C(=O)N[C@@H](CCC(=O)O)C(=O)N[C@@H](Cc1ccccc1)C(=O)N[C@@H](CCCCN)C(=O)N[C@@H](CCCNC(=N)N)C(=O)N[C@H](C(=O)N[C@H](C(=O)N[C@@H](CCC(N)=O)C(=O)N[C@@H](CCCNC(=N)N)C(=O)N[C@H](C(=O)N[C@@H](CCCCN)C(=O)N[C@@H](CC(=O)O)C(=O)N[C@@H](Cc1ccccc1)C(=O)N[C@@H](CC(C)C)C(=O)N[C@@H](CCCNC(=N)N)C(=O)N[C@@H](CC(N)=O)C(=O)N[C@@H](CC(C)C)C(=O)N[C@H](C(=O)N1CCC[C@H]1C(=O)N[C@@H](CCCNC(=N)N)C(=O)N[C@H](C(=O)N[C@@H](CCC(=O)O)C(=O)N[C@@H](CO)C(=O)N[C@@H](CS)C(N)=O)[C@@H](C)O)C(C)C)[C@@H](C)CC)C(C)C)[C@@H](C)CC [LL37] the “pro-angiogenic activity (vessel growth)” value was “induced vessel growth”.
